Measured values reported in patent US20230017045A1, “PYRIDINE AND PYRIMIDINE CARBOXYLATE HERBICIDES AND METHODS OF USE THEREOF” (Dow AgroSciences LLC, priority 2017, published 2023).
Where two headings read alike, the source gives them in different places.

System: test plant species
Assay: Post-emergent herbicidal activity test (greenhouse, foliar spray, visual growth reduction)
Assay type: in vivo
Conditions: post-emergence, 336 h, 140 g ai/ha
Outline: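 Plants grown in greenhouse (15 h photoperiod, 23-29° C day/22-28° C night) to first or second true leaf stage were sprayed overhead with compound in acetone/water/isopropanol/DMSO/crop oil/X-77 carrier at 187 L/ha. Injury was scored visually after 14 d on a 0-100% scale versus solvent-blank and untreated controls.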

[1] = ECHCG: barnyardgrass (Echinochloa crus-galli), 14 days after application, read-out: Visual Growth Reduction (%) 14 Days After Application, ECHCG
[2] = IPOHE: ivy-leaf morning glory (Ipomoea hederacea), 14 days after application, read-out: Visual Growth Reduction (%) 14 Days After Application, IPOHE
[3] = KCHSC: kochia (Bassia scoparia), 14 days after application, read-out: Visual Growth Reduction (%) 14 Days After Application, KCHSC
[4] = ORYSA: rice (Oryza sativa), 14 days after application, read-out: Visual Growth Reduction (%) 14 Days After Application, ORYSA
[5] = SETFA: giant foxtail (Setaria faberi), 14 days after application, read-out: Visual Growth Reduction (%) 14 Days After Application, SETFA
[6] = SORVU: grain sorghum (Sorghum vulgare), 14 days after application, read-out: Visual Growth Reduction (%) 14 Days After Application, SORVU
[7] = STEME: common chickweed (Stellaria media), 14 days after application, read-out: Visual Growth Reduction (%) 14 Days After Application, STEME
[8] = TRZAS: wheat, spring (Triticum aestivum), 14 days after application, read-out: Visual Growth Reduction (%) 14 Days After Application, TRZAS
[9] = blackgrass (Alopecurus myosuroides), 14 Days After Application, read-out: Visual Growth Reduction (%) ALOMY
[10] = canada thistle (Cirsium arvense), 14 Days After Application, read-out: Visual Growth Reduction (%) CIRAR
[11] = crabgrass (Digitaria sanguinalis), 14 Days After Application, read-out: Visual Growth Reduction (%) DIGSA
[12] = lambsquarters (Chenopodium album), 14 Days After Application, read-out: Visual Growth Reduction (%) CHEAL
[13] = redroot pigweed (Amaranthus retroflexus), 14 Days After Application, read-out: Visual Growth Reduction (%) AMARE
[14] = wild oat (Avena fatua), 14 Days After Application, read-out: Visual Growth Reduction (%) AVEFA
[15] = yellow nutsedge (Cyperus esculentus), 14 Days After Application, read-out: Visual Growth Reduction (%) CYPES
[16] = ALOMY: blackgrass (Alopecurus myosuroides), 14 days after application, read-out: Visual Growth Reduction (%) 14 Days After Application, ALOMY
[17] = AMARE: redroot pigweed (Amaranthus retroflexus), 14 days after application, read-out: Visual Growth Reduction (%) 14 Days After Application, AMARE
[18] = AVEFA: wild oat (Avena fatua), 14 days after application, read-out: Visual Growth Reduction (%) 14 Days After Application, AVEFA
[19] = CHEAL: lambsquarters (Chenopodium album), 14 days after application, read-out: Visual Growth Reduction (%) 14 Days After Application, CHEAL
[20] = CIRAR: canada thistle (Cirsium arvense), 14 days after application, read-out: Visual Growth Reduction (%) 14 Days After Application, CIRAR
[21] = CYPES: yellow nutsedge (Cyperus esculentus), 14 days after application, read-out: Visual Growth Reduction (%) 14 Days After Application, CYPES
[22] = DIGSA: crabgrass (Digitaria sanguinalis), 14 days after application, read-out: Visual Growth Reduction (%) 14 Days After Application, DIGSA

Row | Structure (SMILES) | pest or weed control at 140 g/ha [1] [%] | pest or weed control at 140 g/ha [2] [%] | pest or weed control at 140 g/ha [3] [%] | pest or weed control at 140 g/ha [4] [%] | pest or weed control at 140 g/ha [5] [%] | pest or weed control at 140 g/ha [6] [%] | pest or weed control at 140 g/ha [7] [%] | pest or weed control at 140 g/ha [8] [%] | pest or weed control at 140 g/ha [9] [%] | pest or weed control at 140 g/ha [11] [%] | pest or weed control at 140 g/ha [12] [%] | pest or weed control at 140 g/ha [13] [%] | pest or weed control at 140 g/ha [14] [%] | pest or weed control at 140 g/ha [15] [%] | pest or weed control at 140 g/ha [16] [%] | pest or weed control at 140 g/ha [17] [%] | pest or weed control at 140 g/ha [18] [%] | pest or weed control at 140 g/ha [19] [%] | pest or weed control at 140 g/ha [20] [%] | pest or weed control at 140 g/ha [21] [%] | also measured
1 | COC(=O)c1nc(-c2ccc(Cl)c(C(C)F)c2Cl)ccc1Cl (centres unmarked) [F282, Methyl 3-chloro-6-(2,4-dichloro-3-(1-fluoroethyl)phenyl) picolinate] | 0 to 29 | 45 to 59 | 0 to 29 | 0 to 29 | 0 to 29 | 0 to 29 | 0 to 29 | 0 to 29 | 0 to 29 | 0 to 29 | 85 to 94 | 45 to 59 | 0 to 29 | 0 to 29 | – | – | – | – | – | – | pest or weed control at 140 g/ha [10]: 60 to 74%
2 | COC(=O)c1nc(-c2ccc(C(F)(F)F)c(/C=N/N(C)C)c2Cl)ccc1Cl [F142, Methyl (E)-3-chloro-6-(2-chloro-3-((2,2-dimethylhydrazono)methyl)-4-(trifluoromethyl)phenyl)picolinate] | 0 to 29 | 60 to 74 | 0 to 29 | 0 to 29 | 0 to 29 | 60 to 74 | 0 to 29 | 0 to 29 | – | – | – | – | – | – | 0 to 29 | 60 to 74 | 0 to 29 | 30 to 44 | 0 to 29 | 0 to 29 | pest or weed control at 140 g/ha [22]: 0 to 29%
3 | COC(=O)c1nc(-c2ccc(Cl)c3ccccc23)c(F)cc1Cl [F346, Methyl 3-chloro-6-(4-chloronaphthalen-1-yl)-5-fluoropicolinate] | 0 to 29 | 30 to 44 | 0 to 29 | 0 to 29 | 0 to 29 | 0 to 29 | 0 to 29 | 0 to 29 | 0 to 29 | 0 to 29 | 0 to 29 | 0 to 29 | 0 to 29 | 0 to 29 | – | – | – | – | – | – | –
4 | O=C(O)c1nc(-c2ccc(SC(F)(F)F)cc2Cl)c(Cl)cc1Cl [F127, 3,5-Dichloro-6-(2-chloro-4-((trifluoromethyl)thio)phenyl) picolinic acid] | 0 to 29 | 45 to 59 | 75 to 84 | 0 to 29 | 75 to 84 | 60 to 74 | 0 to 29 | 0 to 29 | – | – | – | – | – | – | 0 to 29 | 95 to 100 | 0 to 29 | 75 to 84 | 85 to 94 | 0 to 29 | pest or weed control at 140 g/ha [22]: 60 to 74%
5 | COC(=O)c1nc(-c2ccc(C(F)(F)F)cc2Cl)ccc1C(F)(F)F [F9, Methyl 6-(2-chloro-4-(trifluoromethyl)phenyl)-3-(trifluoromethyl) picolinate] | – | – | – | – | – | – | – | – | – | – | – | – | – | – | 0 to 29 | 30 to 44 | 0 to 29 | 0 to 29 | 0 to 29 | 0 to 29 | pest or weed control at 140 g/ha [22]: 0 to 29%; pest or weed control at 140 g/ha (barnyardgrass (Echinochloa crus-galli), 14 Days After Application, read-out: Visual Growth Reduction (%) ECHCG): 0 to 29%; pest or weed control at 140 g/ha (common chickweed (Stellaria media), 14 Days After Application, read-out: Visual Growth Reduction (%) STEME): 0 to 29%; pest or weed control at 140 g/ha (giant foxtail (Setaria faberi), 14 Days After Application, read-out: Visual Growth Reduction (%) SETFA): 0 to 29%; pest or weed control at 140 g/ha (ivy-leaf morning glory (Ipomoea hederacea), 14 Days After Application, read-out: Visual Growth Reduction (%) IPOHE): 45 to 59%; pest or weed control at 140 g/ha (johnsongrass (Sorghum vulgare), 14 Days After Application, read-out: Visual Growth Reduction (%) SORVU): 0 to 29%; pest or weed control at 140 g/ha (kochia (Bassia scoparia), 14 Days After Application, read-out: Visual Growth Reduction (%) KCHSC): 0 to 29%; pest or weed control at 140 g/ha (rice (Oryza sativa), 14 Days After Application, read-out: Visual Growth Reduction (%) ORYSA): 0 to 29%; pest or weed control at 140 g/ha (wheat, spring (Triticum aestivum), 14 Days After Application, read-out: Visual Growth Reduction (%) TRZAS): 0 to 29%
6 | O=C(O)c1nc(-c2cc3c(cc2Cl)OC(F)(F)O3)c(Cl)cc1Cl [F182, 3,5-Dichloro-6-(6-chloro-2,2-difluorobenzo[d][1,3]dioxol-5-yl)picolinic acid] | 0 to 29 | 95 to 100 | 45 to 59 | 0 to 29 | 60 to 74 | 85 to 94 | 0 to 29 | 0 to 29 | – | – | – | – | – | – | 0 to 29 | 75 to 84 | 0 to 29 | 85 to 94 | 0 to 29 | 30 to 44 | pest or weed control at 140 g/ha [22]: 60 to 74%
7 | COC(=O)c1nc(-c2c(Cl)cc(C(F)(F)F)cc2[N+](=O)[O-])ccc1Cl [F206, Methyl 3-chloro-6-(2-chloro-6-nitro-4-(trifluoromethyl)phenyl)picolinate] | 0 to 29 | 95 to 100 | 30 to 44 | 75 to 84 | 75 to 84 | 75 to 84 | 0 to 29 | 0 to 29 | 0 to 29 | 45 to 59 | 30 to 44 | 45 to 59 | 0 to 29 | 0 to 29 | – | – | – | – | – | – | pest or weed control at 140 g/ha [10]: 30 to 44%
8 | C=Cc1cc(-c2nc(C(=O)OC)c(Cl)cc2F)c(OC)c2c1OC(F)(F)O2 [F372, Methyl 3-chloro-6-(2,2-difluoro-4-methoxy-7-vinylbenzo[d][1,3]dioxol-5-yl)-5-fluoropicolinate] | 0 to 29 | 95 to 100 | 0 to 29 | 0 to 29 | 0 to 29 | 30 to 44 | 0 to 29 | 0 to 29 | 0 to 29 | 0 to 29 | 0 to 29 | 45 to 59 | 0 to 29 | 0 to 29 | – | – | – | – | – | – | pest or weed control at 140 g/ha [10]: 0 to 29%
